Results on four compounds are retold here after PMC6837752, “Effectiveness of four types of neuraminidase inhibitors approved in Japan for the treatment of influenza” (PLoS ONE, 2019).

The subject of one assay is influenza B. The settings on record: patients aged 5 to 18 years, cited from earlier work.
Assay [1] concerns influenza A/H1N1pdm09, A/H3N2, and B viruses. Nature of the assay: Fever duration after NAI treatment in outpatients with laboratory confirmed influenza (observational study). The settings on record: for HR (Cox proportional hazards model of fever duration): multivariable analysis, compared to oseltamivir (reference 1.00); for Mean fever duration after NAI treatment: univariate analysis, all patients aged <20 years, all types/subtypes, from start of treatment to <37.5 °C. In kind it is in vivo, human.

For assay [2], the system named is oseltamivir-sensitive influenza A/H1N1pdm09 virus. In kind it is in vivo. Conditions: oseltamivir-treated patients 0–5 years, oseltamivir-sensitive viruses, n = 111.

“And” between values parts separate entries of the source, which are not always exact repeats. Equal entries are not always repeated.

`[H]/N=C(\N)N[C@H]1C=C(C(=O)O)O[C@@H]([C@H](OC)[C@H](O)CO)[C@@H]1NC(C)=O` [Laninamivir, laninamivir]: the “Median fever duration longer than for peramivir” value in the assay with influenza B (P <0.01) was 1 days. In the assay with influenza B, the “Median fever duration after treatment” value is reported as 3 days. The Average fever duration in assay [1] (age group 0 to 5 years) came out at 75.8 h; in assay [1] (age group 6 to 9 years), 42.9 h; in assay [1] (age group 10 to 19 years) it was 36.6 h. Besides, the “HR (Cox proportional hazards model of fever duration)” value (“HR” for short) in assay [1] is recorded as 0.78. In assay [1], the “Mean fever duration after NAI treatment” value is 39.8 h.

Turning to `CC(=O)N[C@H]1[C@H]([C@H](O)[C@H](O)CO)OC(C(=O)O)=C[C@@H]1N=C(N)N` [Zanamivir, zanamivir], the figures for the Average fever duration in assay [1] (age group 0 to 5 years), in assay [1] (age group 6 to 9 years) and in assay [1] (age group 10 to 19 years) were 45.4 h, 42.3 h and 35.4 h, respectively. For the same compound, the “HR” value in assay [1] was 0.87. Also, in assay [1], the “Mean fever duration after NAI treatment” value is 38.5 h.

As to peramivir, the results for the Average fever duration in assay [1] (age group 0 to 5 years), in assay [1] (age group 6 to 9 years) and in assay [1] (age group 10 to 19 years) were 46.3 h, 31.3 h and 32.3 h, respectively. Moreover, the “HR” value in assay [1] is given as 1.05. Further, in assay [1], the “Mean fever duration after NAI treatment” value was 38.3 h.

In the case of `CCOC(=O)C1=C[C@@H](OC(CC)CC)[C@H](NC(C)=O)[C@@H](N)C1` [Oseltamivir, oseltamivir], the Average fever duration in assay [2] is 40 h and 40 ± 27 h; in assay [1] (age group 0 to 5 years), 42.2 h; in assay [1] (age group 6 to 9 years), 37.3 h; in assay [1] (age group 10 to 19 years) it was 29.8 h. For the same compound, in assay [1], the “HR” value stood at 1.00. Further, the “Mean fever duration after NAI treatment” value in assay [1] was 40.1 h.
